{"source": "patent EP0147851B1", "about": "“Water soluble forms of polyene antibiotics, and process for preparing them” (priority 1983, dated 1985)", "key": {"[1]": {"experiment": "Solubility of Amphotericin B in aqueous γ-CD solutions (spectrophotometric)", "format": "physicochemical", "conditions": "for Amphotericin B Konzentration: 37 °C, 2 Stunden geschüttelt", "experimental": "Das ist ein weiterer Beweis dafür, daß das Amphotericin in den γ-CD-haltigen wäßrigen Lösungen in molekular disperser Form vorliegt.\nAuch für Amphotericin B wurde die Löslichkeit als Funktion der γ-CD-Konzentration ermittelt. Zu wäßrigen γ-CD-Lösungen unterschiedlicher Konzentration (0, 2, 4, 5, 6, 8, 10 beziehungsweise 12 %) wurden 5 mg/ml Amphotericin B gegeben, und die bei 37 °C thermostatisierten Lösungen wurden 2 Stunden lang intensiv geschüttelt. Die Lösungen wurden klarfiltriert, und die Menge des in Lösung gegangenen Amphotericin B wurde spektrophotometrisch bestimmt. Die Ergebnisse sind in der Tabelle 3 zusammengestellt."}, "[2]": {"tested_on": "aus menschlichem Blut hergestellten Suspensionen roter Blutkörperchen", "conditions": "human", "excerpt": "Dyn. 6, 408-414 [1983]) untersucht. Die Ergebnisse werden in Form der zu 50 %iger Hämolyse gehörenden Konzentrationen (EH₅₀) angegeben. […] Auch die hämolytische Wirkung einer der im Komplex gebundenen γ-CD-Menge entsprechenden Menge γ-Cyclodextrin wurde untersucht."}, "[3]": {"tested_on": "aus menschlichem Blut hergestellten Suspensionen roter Blutkörperchen", "conditions": "cited from earlier work"}, "[4]": {"tested_on": "Weibliche CFY-Ratten", "experiment": "Mortality after subcutaneous administration in rats", "format": "in vivo", "conditions": "subcutan, 302 mg/kg, 10 Tiere, observation one week", "excerpt": "• a) Die Resorption von Nystatin aus per os verabreichtem Nystatin-γ-CD-Komplex Die Resorption des Wirkstoffes wurde an Mäusen, an einem durch intravenöse Applikation einer Suspension von Candida albicans hervorgerufenen Sepsismodell untersucht. Die Sepsis verursachte innerhalb von 2-3 Tagen 100 %ige Mortalität. Den Versuchstieren wurde per os gemäß Beispiel 3 hergestellte, 8 % Nystatin enthaltende Komplex verabreicht. In einem Parallelversuch wurde Nystatin intravenös appliziert. Für beide Gruppen wurde die auf die unbehandelte Kontrolle bezogene Verlängerung der Überlebensdauer ermittelt. [formula] Wenn man diejenigen in Form des Komplexes per os verabreichten Nystatindosen mit denjenigen i.v. applizierten Nystatindosen vergleicht, die eine etwa gleiche Verlängerung der Überlebensdauer bewirkten (Tabelle 9, letzte Spalte),so läßt sich errechnen, daß aus dem Komplex durchschnittlich 6,2 % des Wirkstoffes in die Blutbahn gelangten. Bei den höchsten Dosen (i.v. 1,56 mg/kg, p.o. 25 mg/kg) ist das Zurückfallen der Überlebensdauer bereits auf die schwache Toxizität des Nystatins zurückzuführen. • b) Die Resorption von Nystatin aus subcutan appliziertem Nystatin-γ-CD-Komplex Weibliche CFY-Ratten eines durchschnittlichen Gewichtes von 180 g wurden mit Nystatin, mit Nystatin-γ-CD-Komplex (Wirkstoffgehalt9 8 %) beziehungsweise mit γ-CD behandelt. […]"}, "[5]": {"experiment": "Solubility of Flavofungin in aqueous γ-CD solutions (spectrophotometric)", "format": "physicochemical", "conditions": "4 % γ-CD versus water", "experimental": "Der erste Beweis für die Wechselwirkung zwischen Flavofungin und γ-Cyclodextrin ist der beträchtliche Anstieg der Löslichkeit des Flavofungins in wäßrigen γ-Cyclodextrinlösungen. Zur Untersuchung der Löslichkeit wurden wäßrige γ-CD-Lösungen unterschiedlicher Konzentration hergestellt: die Lösungen enthielten 0, 1, 2, 3, 4, 5, 7,5 beziehungsweise 10 % γ-CD. Zu je 1 ml der Lösungen wurden 5 mg festes Flavofungin gegeben. Die Lösungen wurden bei 25 °C 3 Stunden lang intensiv geschüttelt.\nDie Lösungen wurden klarfiltriert, dann wurde spektrophotometrisch die Menge des in Lösung gegangenen Flavofungins ermittelt. Die Messungen zeigten, daß sich das Flavofungin am besten in 4 % γ-CD enthaltenden wäßrigen Lösungen löst; unter den Bedingungen der Untersuchung können Konzentrationen von etwa 4 mg/ml erzielt werden. […] Eine weitere Erhöhung der γ-CD-Konzentration steigert die Löslichkeit des Flavofungins nicht weiter. Die Ergebnisse der Löslichkeitsuntersuchungen sind in der Tabelle 1 zusammengefaßt.\nDie aus dem anfänglich linearen Abschnitt der bei 25 °C aufgenommenen Löslichkeitsisotherme berechnete scheinbare Stabilitätskonstante des Komplexes beträgt etwa 3230.\nDie maximale Löslichkeit in 4 %iger γ-CD-Lösung wurde auch bei verschiedenen Temperaturen untersucht. Die Flavofunginkonzentration betrug bei 10 °C 3,3 mg/ml, bei 30 °C 4,1 mg/ml und bei 40 °C 3,8 mg/ml."}, "[6]": {"experiment": "Heat and storage stability of the solid substances (spectrophotometric content)", "format": "physicochemical", "conditions": "60 °C, 24 Stunden, not protected from light or air", "experimental": "Zur Untersuchung der Wärmestabilität des Flavofungin-γ-CD-Komplexes wurden die Substanzen in 1 mm Schichtdicke auf Uhrgläsern ausgebreitet und weder vor Licht noch vor Luft geschützt bei Raumtemperatur beziehungsweise bei 60 °C im Trockenschrank gelagert. Die zu unterschiedlichen Zeitpunkten genommenen Proben wurden spektrophotometrisch analysiert.\nDer Wirkstoffgehalt des Flavofungin-γ-CD-Komplexes blieb jedoch auch nach 50 Tagen zu etwa 75 % erhalten. Ein 10 % Flavofungin enthaltendes, mit Glucose bereitetes physikalisches Gemisch verlor bei 14tägiger Lagerung bei Raumtemperatur 50 % seines Wirkstoffgehaltes. Der Wirkstoffgehalt des Komplexes war jedoch auch nach 50 Tagen noch zu mehr als 95 % erhalten. Die in einem verschlossenen Gefäß bei +4 °C 7 Monate lang gelagerte Probe zeigte keinen Verlust an Wirkstoff. Die Meßergebnisse sind in der Tabelle 4 zusammengestellt.\n(§1) Auch mit diesem Produkt wird die im Beispiel 1 beschriebene Untersuchung der Wärmestabilität vorgenommen. Dabei wurde gefunden, daß der Komplex, ähnlich wie der lyophilisierte Komplex, eine erhöhte Wärmestabilität zeigt und seine antifungale Wirkung nicht geringer wird."}, "[7]": {"tested_on": "S. oerevisiae, C. albicans, C. crusei und C. pseudotropicals", "experiment": "Microbiological potency after storage (MIC)", "format": "cell-based", "conditions": "sample stored under nitrogen in the freezer", "experimental": "Auch die mikrobiologische Wertmessung bestätigte, daß das Flavofungin in Form des γ-CD-Komplexes viel stabiler ist. Flavofungin-γ-CD-Komplex wurde bei Raumtemperatur und bei 60°C gelagert, und danach war die antifungale Wirkung genau so groß wie ursprünglich.\nas §1"}, "[8]": {"conditions": "Raumtemperatur an der Luft, innerhalb von zwei Wochen; cited from earlier work"}, "[9]": {"tested_on": "Mäusen", "conditions": "i.p. an Mäusen; cited from earlier work"}}, "note": "Read-outs that look alike come from different tables or passages of the source.", "data": [{"molecule": "C[C@@H]1[C@H](O)[C@@H](C)/C=C/C=C/C=C/C=C/C=C/C=C/C=C/[C@H](O[C@@H]2O[C@H](C)[C@@H](O)[C@H](N)[C@@H]2O)C[C@@H]2O[C@](O)(C[C@@H](O)C[C@@H](O)[C@H](O)CC[C@@H](O)C[C@@H](O)CC(=O)O[C@H]1C)C[C@H](O)[C@H]2C(=O)O", "note": "[Amphotericin B]", "values": [{"measurement": "Löslichkeit relative to Löslichkeit in Wasser", "setting": "[1]; 5 %ige γ-CD-Lösung", "result": "etwa das Hundertfache"}, {"measurement": "Löslichkeit relative to Löslichkeit in Wasser", "setting": "[1]; 10 %ige γ-CD-Lösung", "result": "etwa das Zweihundertfache"}, {"measurement": "Löslichkeit in γ-CD-haltigen Lösungen on addition of salt", "setting": "[1]; Zusatz von 0,9 Gew.-% Kochsalz", "result": "nicht verändert"}, {"measurement": "Amphotericin B Konzentration", "setting": "[1]; γ-CD-Konzentration 0 %", "result": "0,003 mg/ml"}, {"measurement": "Amphotericin B Konzentration", "setting": "[1]; γ-CD-Konzentration 2 %", "result": "0,12 mg/ml"}, {"measurement": "Amphotericin B Konzentration", "setting": "[1]; γ-CD-Konzentration 4 %", "result": "0,25 mg/ml"}, {"measurement": "Amphotericin B Konzentration", "setting": "[1]; γ-CD-Konzentration 5 %", "result": "0,30 mg/ml"}, {"measurement": "Amphotericin B Konzentration", "setting": "[1]; γ-CD-Konzentration 6 %", "result": "0,36 mg/ml"}, {"measurement": "Amphotericin B Konzentration", "setting": "[1]; γ-CD-Konzentration 8 %", "result": "0,51 mg/ml"}, {"measurement": "Amphotericin B Konzentration", "setting": "[1]; γ-CD-Konzentration 10 %", "result": "0,65 mg/ml"}, {"measurement": "Amphotericin B Konzentration", "setting": "[1]; γ-CD-Konzentration 12 %", "result": "0,65 mg/ml"}, {"measurement": "EH₅₀ (concentration for 50 % haemolysis)", "setting": "[2]", "result": "4,8 µg/ml"}, {"measurement": "Hämolyse", "setting": "[2]; 25 µg/ml", "result": "92,4%"}, {"measurement": "EH₅₀ (concentration for 50 % haemolysis)", "setting": "[3]", "result": 5, "unit": "µg/mL"}]}, {"molecule": "OC[C@H]1O[C@@H]2O[C@H]3[C@H](O)[C@@H](O)[C@@H](O[C@H]4[C@H](O)[C@@H](O)[C@@H](O[C@H]5[C@H](O)[C@@H](O)[C@@H](O[C@H]6[C@H](O)[C@@H](O)[C@@H](O[C@H]7[C@H](O)[C@@H](O)[C@@H](O[C@H]8[C@H](O)[C@@H](O)[C@@H](O[C@H]9[C@H](O)[C@@H](O)[C@@H](O[C@H]1[C@H](O)[C@H]2O)O[C@@H]9CO)O[C@@H]8CO)O[C@@H]7CO)O[C@@H]6CO)O[C@@H]5CO)O[C@@H]4CO)O[C@@H]3CO", "note": "[γ-CD, γ-Cyclodextrin]", "values": [{"measurement": "Mortalität (animals that died)", "setting": "[4]", "result": "kein einziges"}]}, {"molecule": "Flavofungin", "values": [{"measurement": "Anstieg der Löslichkeit", "setting": "[5]", "result": "etwa das Achtzigfache"}, {"measurement": "Zersetzung of the solid", "setting": "[6]", "result": "starke Zersetzung"}, {"measurement": "MIC", "setting": "[7]", "result": 25, "unit": "µg/mL"}, {"measurement": "Verlust der Aktivität", "setting": "[8]", "result": 50, "unit": "%"}]}, {"molecule": "Methylester von Amphotericin B", "values": [{"measurement": "LD₅₀", "setting": "[9]", "result": 1320, "unit": "mg/kg"}]}]}
